Laboratory results as given in US20250206727A1, “HETEROCYCLIC SUBSTITUTED AROMATIC COMPOUND, PREPARATION METHOD THEREFOR, HERBICIDAL COMPOSITION AND APPLICATION” (QINGDAO KINGAGROOT CHEMICAL COMPOUND CO., LTD., priority 2022, published 2025).

What was measured:
Test in all cases: Post-emergence test on weeds (greenhouse, spray at 2-3 leaf stage)
Type in all cases: in vivo
Design in all cases: key: Level 10: completely dead; Level 9: growth control rate greater than or equal to 90% and less than 100%; Level 8: growth control rate greater than or equal to 80% and less than 90%; Level 7: growth control rate greater than or equal to 70% and less than 80%; Level 6: growth control rate greater than or equal to 60% and less than 70%; Level 5: growth control rate greater than or equal to 50% and less than 60%; Level 4: growth control rate greater than or equal to 40% and less than 50%; Level 3: growth control rate greater than or equal to 30% and less than 40%; Level 2: growth control rate greater than or equal to 20% and less than 30%; Level 1: growth control rate less than 20%; Level 0: no effect
Settings in all cases: 60 g a.i./ha, 3 weeks after application
Abutilon theophrasti = tested on: Abutilon theophrasti
How it was run: (§1)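 Pot-grown plants were spray-tower treated two weeks after sowing with compound in acetone/Tween 80 plus 1.5 L/ha methyl oleate EC, at rates from 500 to 7.5 g a.i./ha. Fresh-weight growth control was scored 0–10 after 3 weeks in the greenhouse, averaged over triplicates.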

Amaranthus retroflexus = tested on: Amaranthus retroflexus
How it was run: as §1

Digitaria sanguinalis = tested on: Digitaria sanguinalis
How it was run: as §1

Echinochloa crus-galli = tested on: Echinochloa crus-galli
How it was run: as §1

Setaria viridis = tested on: Setaria viridis
How it was run: as §1

Veronica polita = tested on: Veronica polita
How it was run: as §1

CC(C)OC(=O)C1(C)ON=C(c2cc(-c3ncc(C(F)(F)F)cc3Cl)c(F)cc2Cl)O1 (stereo not drawn) [Compound 88]
10: activity level (fresh weight growth control rate), Abutilon theophrasti (Abutilon theophrasti) | activity level (fresh weight growth control rate), Amaranthus retroflexus (Amaranthus retroflexus) | activity level (fresh weight growth control rate), Digitaria sanguinalis (Digitaria sanguinalis) | activity level (fresh weight growth control rate), Echinochloa crus-galli (Echinochloa crus-galli) | activity level (fresh weight growth control rate), Setaria viridis (Setaria viridis) | activity level (fresh weight growth control rate), Veronica polita (Veronica polita)

CCCCOC(=O)C1(C)ON=C(c2cc(-c3ncc(C(F)(F)F)cc3Cl)c(F)cc2Cl)O1 (stereo not drawn) [Compound 89]
10: activity level (fresh weight growth control rate), Abutilon theophrasti (Abutilon theophrasti) | activity level (fresh weight growth control rate), Amaranthus retroflexus (Amaranthus retroflexus) | activity level (fresh weight growth control rate), Digitaria sanguinalis (Digitaria sanguinalis) | activity level (fresh weight growth control rate), Echinochloa crus-galli (Echinochloa crus-galli) | activity level (fresh weight growth control rate), Setaria viridis (Setaria viridis) | activity level (fresh weight growth control rate), Veronica polita (Veronica polita)

C=CCOC(=O)C1(C)ON=C(c2cc(-c3ncc(C(F)(F)F)cc3Cl)c(F)cc2Cl)O1 (stereo not drawn) [Compound 93]
10: activity level (fresh weight growth control rate), Abutilon theophrasti (Abutilon theophrasti) | activity level (fresh weight growth control rate), Amaranthus retroflexus (Amaranthus retroflexus) | activity level (fresh weight growth control rate), Digitaria sanguinalis (Digitaria sanguinalis) | activity level (fresh weight growth control rate), Echinochloa crus-galli (Echinochloa crus-galli) | activity level (fresh weight growth control rate), Setaria viridis (Setaria viridis) | activity level (fresh weight growth control rate), Veronica polita (Veronica polita)

CC(C)=CCOC(=O)C1(C)ON=C(c2cc(-c3ncc(C(F)(F)F)cc3Cl)c(F)cc2Cl)O1 (stereo not drawn) [Compound 96]
10: activity level (fresh weight growth control rate), Abutilon theophrasti (Abutilon theophrasti) | activity level (fresh weight growth control rate), Amaranthus retroflexus (Amaranthus retroflexus) | activity level (fresh weight growth control rate), Digitaria sanguinalis (Digitaria sanguinalis) | activity level (fresh weight growth control rate), Echinochloa crus-galli (Echinochloa crus-galli) | activity level (fresh weight growth control rate), Setaria viridis (Setaria viridis) | activity level (fresh weight growth control rate), Veronica polita (Veronica polita)

C#CCOC(=O)C1(C)ON=C(c2cc(-c3ncc(C(F)(F)F)cc3Cl)c(F)cc2Cl)O1 (stereo not drawn) [Compound 97]
10: activity level (fresh weight growth control rate), Abutilon theophrasti (Abutilon theophrasti) | activity level (fresh weight growth control rate), Amaranthus retroflexus (Amaranthus retroflexus) | activity level (fresh weight growth control rate), Digitaria sanguinalis (Digitaria sanguinalis) | activity level (fresh weight growth control rate), Echinochloa crus-galli (Echinochloa crus-galli) | activity level (fresh weight growth control rate), Setaria viridis (Setaria viridis) | activity level (fresh weight growth control rate), Veronica polita (Veronica polita)

CC1(C(=O)OCCF)ON=C(c2cc(-c3ncc(C(F)(F)F)cc3Cl)c(F)cc2Cl)O1 (stereo not drawn) [Compound 99]
10: activity level (fresh weight growth control rate), Abutilon theophrasti (Abutilon theophrasti) | activity level (fresh weight growth control rate), Amaranthus retroflexus (Amaranthus retroflexus) | activity level (fresh weight growth control rate), Digitaria sanguinalis (Digitaria sanguinalis) | activity level (fresh weight growth control rate), Echinochloa crus-galli (Echinochloa crus-galli) | activity level (fresh weight growth control rate), Setaria viridis (Setaria viridis) | activity level (fresh weight growth control rate), Veronica polita (Veronica polita)

CC1(C(=O)OCC(F)F)ON=C(c2cc(-c3ncc(C(F)(F)F)cc3Cl)c(F)cc2Cl)O1 (stereo not drawn) [Compound 101]
10: activity level (fresh weight growth control rate), Abutilon theophrasti (Abutilon theophrasti) | activity level (fresh weight growth control rate), Amaranthus retroflexus (Amaranthus retroflexus) | activity level (fresh weight growth control rate), Digitaria sanguinalis (Digitaria sanguinalis) | activity level (fresh weight growth control rate), Echinochloa crus-galli (Echinochloa crus-galli) | activity level (fresh weight growth control rate), Setaria viridis (Setaria viridis) | activity level (fresh weight growth control rate), Veronica polita (Veronica polita)

CC1(C(=O)OCCCF)ON=C(c2cc(-c3ncc(C(F)(F)F)cc3Cl)c(F)cc2Cl)O1 (stereo not drawn) [Compound 103]
10: activity level (fresh weight growth control rate), Abutilon theophrasti (Abutilon theophrasti) | activity level (fresh weight growth control rate), Amaranthus retroflexus (Amaranthus retroflexus) | activity level (fresh weight growth control rate), Digitaria sanguinalis (Digitaria sanguinalis) | activity level (fresh weight growth control rate), Echinochloa crus-galli (Echinochloa crus-galli) | activity level (fresh weight growth control rate), Setaria viridis (Setaria viridis) | activity level (fresh weight growth control rate), Veronica polita (Veronica polita)

C=CCCCOC(=O)C1(C)ON=C(c2cc(-c3ncc(C(F)(F)F)cc3Cl)c(F)cc2Cl)O1 (stereo not drawn) [Compound 106]
10: activity level (fresh weight growth control rate), Abutilon theophrasti (Abutilon theophrasti) | activity level (fresh weight growth control rate), Amaranthus retroflexus (Amaranthus retroflexus) | activity level (fresh weight growth control rate), Digitaria sanguinalis (Digitaria sanguinalis) | activity level (fresh weight growth control rate), Echinochloa crus-galli (Echinochloa crus-galli) | activity level (fresh weight growth control rate), Setaria viridis (Setaria viridis) | activity level (fresh weight growth control rate), Veronica polita (Veronica polita)

COCOC(=O)C1(C)ON=C(c2cc(-c3ncc(C(F)(F)F)cc3Cl)c(F)cc2Cl)O1 (stereo not drawn) [Compound 108]
10: activity level (fresh weight growth control rate), Abutilon theophrasti (Abutilon theophrasti) | activity level (fresh weight growth control rate), Amaranthus retroflexus (Amaranthus retroflexus) | activity level (fresh weight growth control rate), Digitaria sanguinalis (Digitaria sanguinalis) | activity level (fresh weight growth control rate), Echinochloa crus-galli (Echinochloa crus-galli) | activity level (fresh weight growth control rate), Setaria viridis (Setaria viridis) | activity level (fresh weight growth control rate), Veronica polita (Veronica polita)

CSCOC(=O)C1(C)ON=C(c2cc(-c3ncc(C(F)(F)F)cc3Cl)c(F)cc2Cl)O1 (stereo not drawn) [Compound 109]
10: activity level (fresh weight growth control rate), Abutilon theophrasti (Abutilon theophrasti) | activity level (fresh weight growth control rate), Amaranthus retroflexus (Amaranthus retroflexus) | activity level (fresh weight growth control rate), Digitaria sanguinalis (Digitaria sanguinalis) | activity level (fresh weight growth control rate), Echinochloa crus-galli (Echinochloa crus-galli) | activity level (fresh weight growth control rate), Setaria viridis (Setaria viridis) | activity level (fresh weight growth control rate), Veronica polita (Veronica polita)

COCCOC(=O)C1(C)ON=C(c2cc(-c3ncc(C(F)(F)F)cc3Cl)c(F)cc2Cl)O1 (stereo not drawn) [Compound 110]
10: activity level (fresh weight growth control rate), Abutilon theophrasti (Abutilon theophrasti) | activity level (fresh weight growth control rate), Amaranthus retroflexus (Amaranthus retroflexus) | activity level (fresh weight growth control rate), Digitaria sanguinalis (Digitaria sanguinalis) | activity level (fresh weight growth control rate), Echinochloa crus-galli (Echinochloa crus-galli) | activity level (fresh weight growth control rate), Setaria viridis (Setaria viridis) | activity level (fresh weight growth control rate), Veronica polita (Veronica polita)

COCCOC(=O)C1(C)ON=C(c2cc(-c3ncc(Cl)cc3Cl)c(F)cc2Cl)O1 (stereo not drawn) [Compound 111]
10: activity level (fresh weight growth control rate), Abutilon theophrasti (Abutilon theophrasti) | activity level (fresh weight growth control rate), Amaranthus retroflexus (Amaranthus retroflexus) | activity level (fresh weight growth control rate), Digitaria sanguinalis (Digitaria sanguinalis) | activity level (fresh weight growth control rate), Echinochloa crus-galli (Echinochloa crus-galli) | activity level (fresh weight growth control rate), Setaria viridis (Setaria viridis) | activity level (fresh weight growth control rate), Veronica polita (Veronica polita)

COCCOC(=O)C1ON=C(c2cc(-c3ncc(C(F)(F)F)cc3Cl)c(F)cc2Cl)O1 (stereo not drawn) [Compound 112]
10: activity level (fresh weight growth control rate), Abutilon theophrasti (Abutilon theophrasti) | activity level (fresh weight growth control rate), Amaranthus retroflexus (Amaranthus retroflexus) | activity level (fresh weight growth control rate), Digitaria sanguinalis (Digitaria sanguinalis) | activity level (fresh weight growth control rate), Echinochloa crus-galli (Echinochloa crus-galli) | activity level (fresh weight growth control rate), Setaria viridis (Setaria viridis) | activity level (fresh weight growth control rate), Veronica polita (Veronica polita)

COCCCOC(=O)C1(C)ON=C(c2cc(-c3ncc(C(F)(F)F)cc3Cl)c(F)cc2Cl)O1 (stereo not drawn) [Compound 114]
10: activity level (fresh weight growth control rate), Abutilon theophrasti (Abutilon theophrasti) | activity level (fresh weight growth control rate), Amaranthus retroflexus (Amaranthus retroflexus) | activity level (fresh weight growth control rate), Digitaria sanguinalis (Digitaria sanguinalis) | activity level (fresh weight growth control rate), Echinochloa crus-galli (Echinochloa crus-galli) | activity level (fresh weight growth control rate), Setaria viridis (Setaria viridis) | activity level (fresh weight growth control rate), Veronica polita (Veronica polita)

COCCCOC(=O)C1ON=C(c2cc(-c3ncc(C(F)(F)F)cc3Cl)c(F)cc2Cl)O1 (stereo not drawn) [Compound 115]
10: activity level (fresh weight growth control rate), Abutilon theophrasti (Abutilon theophrasti) | activity level (fresh weight growth control rate), Amaranthus retroflexus (Amaranthus retroflexus) | activity level (fresh weight growth control rate), Digitaria sanguinalis (Digitaria sanguinalis) | activity level (fresh weight growth control rate), Echinochloa crus-galli (Echinochloa crus-galli) | activity level (fresh weight growth control rate), Setaria viridis (Setaria viridis) | activity level (fresh weight growth control rate), Veronica polita (Veronica polita)
